Tested on: DBA1/J mice
Test: Collagen type II induced arthritis, prophylactic treatment (Example 1)
Format: in vivo
Conditions: for Ankylosis score / Incidence of ankylosis (% of animals affected) / Incidence of arthritis (% of animals affected) / Mean Arthritic Score / Mean number of affected paws: 100 mpk (2 ×) orally, treated day 20-36
Experimental: Male DBA1/J mice were immunized intradermally with collagen type II emulsified in complete Freund's Adjuvant on day 0 and day 21. Treatment of mice was started on day 20 (10 animals/treatment group). Mice were treated orally twice daily (6 hours time interval) with vehicle [DMSO: cremophor: 0.9% NaCl solution, 1:1:8 (v:v:v)] or compound 75 at a dose of 100 mg/kg. Three times per week symptoms of arthritis were scored. Animals were treated till day 36, at day 37 animals were sacrificed, blood was collected for analysis of anti-collagen antibodies, radiographs were made and paws were fixed for histological evaluation. […] Trained lab personnel evaluated the severity and incidence of the arthritic symptoms at regular intervals without knowing which animals had received vehicle or drug.
In Table 9, the mean arthritic score is shown. For each paw, a score ranging from 0 (normal) to 2 (maximal redness and swelling) is given. The score for the 4 paws is summed up and averaged for the 10 animals per group (=Mean arthritic score).
Table 11 summarizes the results of the observations for the occurrence of ankylosis as the arthritis progresses. Each paw is scored as follows: 0 for no ankylosis, 1 for ankylosis. Again the results for the four paws are summed up and averaged for the 10 animals. At the end of the experiment, the ankylosis score in the vehicle group (3.1) is clearly higher than that in the group treated with Compound 75 (1.2).

[1] = 100 mg/kg orally twice daily, day 20-36
[2] = 100 mg/kg orally twice daily, versus vehicle

For Cn1cncc1C(N)(c1ccc(Cl)cc1)c1ccc2c(c1)c(-c1cccc(Cl)c1)cc(=O)n2C (single isomer, unassigned; (+)) [Compound 75, (+)-6-[amino(4-chlorophenyl)(1-methyl-1H-imidazol-5-yl)methyl]-4-(3-chlorophenyl)-1-methyl-2(1H)-quinolinone], the lethalities [1] was “no lethalities were observed”, the signs of toxicity [1] was “did not show any signs of toxicity” and the “effect on mean arthritic score (in words)” value [2] was “clearly suppresses the arthritic score”. For the same compound, the “effect on mean number of affected paws (in words)” value [2] was “reduces that number”, the “effect on mean arthritic score (in words)” value (100 mg/kg orally twice daily, versus vehicle, listed as compound 75) was “reduces the mean arthritic score” and the incidence of ankylosis (100 mg/kg orally twice daily, summary in text of Table 12) was 60%. The Ankylosis score (day 22 after immunization) was 0.00, the “Incidence of ankylosis (% of animals affected)” value (day 22 after immunization) was 0% and the “Incidence of arthritis (% of animals affected)” value (day 22 after immunization) was 0%. The “Mean Arthritic Score” value (day 22 after immunization) was 0.00, the “Mean number of affected paws” value (day 22 after immunization) was 0.00 and the Ankylosis score (day 24 after immunization) was 0.00. For the same compound, the “Incidence of ankylosis (% of animals affected)” value (day 24 after immunization) was 0%, the “Incidence of arthritis (% of animals affected)” value (day 24 after immunization) was 20% and the “Mean Arthritic Score” value (day 24 after immunization) was 0.05. For the same compound, the “Mean number of affected paws” value (day 24 after immunization) was 0.20, the Ankylosis score (day 27 after immunization) was 0.30 and the “Incidence of ankylosis (% of animals affected)” value (day 27 after immunization) was 10%. For the same compound, the “Incidence of arthritis (% of animals affected)” value (day 27 after immunization) was 40%, the “Mean Arthritic Score” value (day 27 after immunization) was 0.60 and the “Mean number of affected paws” value (day 27 after immunization) was 0.80. For the same compound, the Ankylosis score (day 29 after immunization) was 0.80, the “Incidence of ankylosis (% of animals affected)” value (day 29 after immunization) was 50% and the “Incidence of arthritis (% of animals affected)” value (day 29 after immunization) was 80%. The “Mean Arthritic Score” value (day 29 after immunization) was 0.90, the “Mean number of affected paws” value (day 29 after immunization) was 1.30 and the Ankylosis score (day 31 after immunization) was 1.10. The “Incidence of ankylosis (% of animals affected)” value (day 31 after immunization) was 50%, the “Incidence of arthritis (% of animals affected)” value (day 31 after immunization) was 70% and the “Mean Arthritic Score” value (day 31 after immunization) was 1.03. For the same compound, the “Mean number of affected paws” value (day 31 after immunization) was 1.70, the Ankylosis score (day 34 after immunization) was 1.20 and the “Incidence of ankylosis (% of animals affected)” value (day 34 after immunization) was 50%. The “Incidence of arthritis (% of animals affected)” value (day 34 after immunization) was 60%, the “Mean Arthritic Score” value (day 34 after immunization) was 0.80 and the “Mean number of affected paws” value (day 34 after immunization) was 1.20. The Ankylosis score (day 36 after immunization) was 1.40, the “Incidence of ankylosis (% of animals affected)” value (day 36 after immunization) was 60% and the “Incidence of arthritis (% of animals affected)” value (day 36 after immunization) was 70%. The “Mean Arthritic Score” value (day 36 after immunization) was 0.75, the “Mean number of affected paws” value (day 36 after immunization) was 1.30 and the Ankylosis score (day 37 after immunization (end of the experiment), 100 mg/kg) was 1.2. For the same compound, the “Incidence of ankylosis (% of animals affected)” value (day 37 after immunization) was 60%, the “Incidence of arthritis (% of animals affected)” value (day 37 after immunization) was 60% and the “Mean Arthritic Score” value (day 37 after immunization) was 0.80. For the same compound, the “Mean number of affected paws” value (day 37 after immunization) was 1.30.

— patent US6451812B1, “Farnesyl protein transferase inhibitors for treating arthropathies” (Janssen Pharmaceutica N.V., priority 1998, dated 2002)
